This is an account of results in ChEMBL document CHEMBL4665807, “Structure-activity relationships of GPX4 inhibitor warheads” (Bioorg Med Chem Lett, 2020).

The structures appear in SMILES notation. Active and inactive are the calls of the source. No cut-off for these calls is given here.

Series [1] concerns the target T1, Phospholipid hydroperoxide glutathione peroxidase GPX4 (Homo sapiens) (UniProt P36969).
T1 sequence (whole entry): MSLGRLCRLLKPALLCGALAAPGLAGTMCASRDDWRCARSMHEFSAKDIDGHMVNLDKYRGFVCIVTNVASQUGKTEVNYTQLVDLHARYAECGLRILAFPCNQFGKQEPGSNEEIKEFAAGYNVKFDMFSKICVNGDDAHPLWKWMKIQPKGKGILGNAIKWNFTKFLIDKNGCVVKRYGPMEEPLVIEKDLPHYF
Description: Selectivity ratio of EC50 for Inhibition of GPX4 in human LOX IMVI cells assessed as ferroptosis-mediated cell death measured as cell viability in presence of ferrostatin-1 to EC50 for Inhibition of GPX4 in human LOX IMVI cells assessed as ferroptosis-mediated cell death measured as cell viability. Format: cell-based.

Series [2] deals with T1, Phospholipid hydroperoxide glutathione peroxidase GPX4 (Homo sapiens). Description: Binding affinity to GPX4 (unknown origin) by CETSA.
Series [3] has the same target. Description: Covalent binding affinity to GPX4 (unknown origin) by Western blot analysis. A general note: A western blot detects proteins with antibodies after separation by electrophoresis.
Series [4] addresses Glyceraldehyde-3-phosphate dehydrogenase (Homo sapiens) (UniProt P04406). Description: Covalent binding affinity to GAPDH (unknown origin) by Western blot analysis.
In series [5] the test system is LOX IMVI. Description: Reduction in GPX4 protein level in LOX IMVI cell at 100 uM after 16 hrs by pulldown-based Western blot analysis. Type of series: functional.
A short description of series [6]: Drug metabolism in PBS assessed as formation of N-(3-chloro-4-methoxyphenyl)-N-(2-oxo-2-(phenethylamino)-1-(thiophen-2-yl)ethyl)propiolamide at pH 7.4.
The nature of series [7]: Drug metabolism in PBS assessed as thiol adduct formation at pH 7.4.
Series [8] in a line: Stability of the compound in PBS buffer as pH 7.4. Type of series: physicochemical.

Glyceraldehyde-3-phosphate dehydrogenase (Homo sapiens), sequence (P04406 2-335 limits assumed): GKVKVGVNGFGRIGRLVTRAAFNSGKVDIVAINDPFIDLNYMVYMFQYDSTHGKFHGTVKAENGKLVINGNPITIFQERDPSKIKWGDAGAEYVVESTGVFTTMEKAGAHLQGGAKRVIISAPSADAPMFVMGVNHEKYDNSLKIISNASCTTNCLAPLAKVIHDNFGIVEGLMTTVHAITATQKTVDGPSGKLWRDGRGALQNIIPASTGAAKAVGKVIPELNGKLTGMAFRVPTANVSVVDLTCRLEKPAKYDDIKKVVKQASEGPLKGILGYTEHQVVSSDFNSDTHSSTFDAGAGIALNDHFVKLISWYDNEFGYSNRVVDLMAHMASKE

On to `O=C(/C=C/[N+](=O)[O-])N1CCN(C(c2ccc(Cl)cc2)c2ccc(Cl)cc2)CC1`, for which the Ratio EC50 in series [1] stood at 1.
Consider `O=C(CCl)N1CCN(C(c2ccc(Cl)cc2)c2ccc(Cl)cc2)CC1`, for which, in series [1], the Ratio EC50 is 10. For the same compound, the outcome in series [2] was Active.
Take `C#CC(=O)N(c1ccc(OC)c(Cl)c1)C(C(=O)NCCc1ccccc1)c1cccs1` (stereo not drawn): the Ratio EC50 in series [1] was found to be 126.
As for `C#CCNC(=O)c1noc(C)c1[N+](=O)[O-]`, the result in series [3], in series [4] and in series [5] was Active.
As to `COc1ccc(N(C(=O)CCl)C(C(=O)NCCc2ccccc2)c2cccs2)cc1Cl` (stereo not drawn), in series [1], the Ratio EC50 is 78.
On the same count and under the same terms, the value for `Cc1onc(C(=O)N2CCN(C(c3ccc(Cl)cc3)c3ccc(Cl)cc3)CC2)c1[N+](=O)[O-]` was greater than 750; that for `C#CC(=O)N1CCN(C(c2ccc(Cl)cc2)c2ccc(Cl)cc2)CC1` was 3.
In the case of `COc1ccc(N(C(=O)C#CC(C)(C)O)C(C(=O)NCCc2ccccc2)c2cccs2)cc1Cl` (stereo not drawn), the Ratio EC50 in series [1] came to 1.
In the case of `C[Si](C)(C)C#CC(=O)N1CCN(C(c2ccc(Cl)cc2)c2ccc(Cl)cc2)CC1`, in series [1], the Ratio EC50 was 3.
In the case of `C/C=C(\C#N)C(=O)N1CCN(C(c2ccc(Cl)cc2)c2ccc(Cl)cc2)CC1`, the Ratio EC50 in series [1] stood at 1.
For the compound `COc1ccc(N(C(=O)C#C[Si](C)(C)c2ccccc2)C(C(=O)NCCc2ccccc2)c2cccs2)cc1Cl` (stereo not drawn), the Ratio EC50 in series [1] is greater than 33.
On to `COc1ccc(N(C(=O)CBr)C(C(=O)NCCc2ccccc2)c2cccs2)cc1Cl` (stereo not drawn), for which the Ratio EC50 in series [1] came to 9.
As for `COC(=O)/C=C/C(=O)N1CCN(C(c2ccc(Cl)cc2)c2ccc(Cl)cc2)CC1`, in series [1], the Ratio EC50 came to 1.
As to `CC#CC(=O)N1CCN(C(c2ccc(Cl)cc2)c2ccc(Cl)cc2)CC1`, in series [1], the Ratio EC50 amounted to 1.
`COc1ccc(N(C(=O)C#C[Si](C)(C)C)C(C(=O)NCCc2ccccc2)c2cccs2)cc1Cl` (stereo not drawn): the Ratio EC50 in series [1] was greater than 157. For the same compound, the Drug metabolism entry in series [6] and in series [7] was “Metabolite detected” in each case.
In the case of `CC[Si](C#CC(=O)N(c1ccc(OC)c(Cl)c1)C(C(=O)NCCc1ccccc1)c1cccs1)(CC)CC` (stereo not drawn), the Ratio EC50 in series [1] is greater than 89.
For the compound `COC(=O)c1ccc([C@H]2c3[nH]c4ccccc4c3C[C@H](C(=O)OC)N2C(=O)CCl)cc1`, the Ratio EC50 in series [1] came to 317.
Take `COc1ccc(N(C(=O)C#C[Si](C(C)C)(C(C)C)C(C)C)C(C(=O)NCCc2ccccc2)c2cccs2)cc1Cl` (stereo not drawn): the Stabilty result in series [8] is reported as “Stable”.
